Source: patent EP4725957A1, “GROUP OF CYCLIC ALKALINE LIPOPEPTIDE COMPOUNDS, AND PREPARATION METHOD THEREFOR AND USE THEREOF” (Institute of Medicinal Biotechnology, Chinese Academy of …, priority 2023, dated 2024)
Values after ≈ are worked out from the molar mass of the structure shown. Read-outs that look alike come from different tables or passages of the source. Bridge positions count the residues as written; N and C are the ends. Square brackets hold non-standard residues; d marks the D form. Peptide text beside a SMILES is read from it. * marks the point of attachment. Heptanoyl(6-Me) = CC(C)CCCCC(=O)*; Nonanoyl = CCCCCCCCC(=O)*; X1 = CC[C@H](C)CCCCC(=O)*; dDab = NCC[C@@H](N)C(=O)O; Heptanoyl = CCCCCCC(=O)*; Octanoyl = CCCCCCCC(=O)*; Orn = NCCC[C@H](N)C(=O)O; Dab = NCC[C@H](N)C(=O)O; Dap = NC[C@H](N)C(=O)O

Experiments:
Format in all cases: cell-based
[1] = test system: Acinetobacter baumannii NCTC 13304 (OXA-27)
Summary of the method: (§1)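 Broth microdilution MIC per CLSI in MH broth, compounds 2-fold diluted to final 64–0.03 mg/L. Inoculum (2-4) × 10^5 CFU/mL final, from 0.5 McFarland suspensions of 18-24 h colonies. Plates sealed and incubated 35-37°C for 16-20 h.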

[2] = test system: Escherichia coli ATCC BAA-2340 (KPC)
Summary of the method: as §1

[3] = test system: Acinetobacter baumannii ABA19-1
Summary of the method: as §1

[4] = test system: Klebsiella pneumoniae KPN+19-15
Summary of the method: as §1

[5] = test system: Pseudomonas aeruginosa PAE19-3
Summary of the method: as §1

[6] = test system: Pseudomonas aeruginosa ATCC 27853
Summary of the method: as §1

[7] = test system: Escherichia coli ATCC BAA-2523
Summary of the method: as §1

[8] = test system: Klebsiella pneumoniae ATCC BAA-1705 (KPC)
Summary of the method: as §1

[9] = Nephrotoxicity assay: in vitro cytotoxicity of HK-2 cells by CCK-8 assay; conditions: human, HK-2 cells (human renal), 72 h incubation with drug-containing medium
Summary of the method: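 HK-2 human renal cells in RPMI-1640 with 10% FBS were exposed to compounds at final 12.5–500 µg/mL for 72 h, then CCK-8 for 3 h and OD450 read. Viability was normalised to drug-free wells; IC50 came from logarithmic regression over three repeats, with polymyxin B as positive drug.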

| SMILES | MIC ([1]; NCTC 13304) [µg/mL] | MIC ([2]; ATCC BAA-2340) [µg/mL] | MIC ([3]; ABA19-1) [µg/mL] | MIC ([4]; KPN+19-15) [µg/mL] | MIC ([5]; PAE19-3) [µg/mL] | MIC ([6]; ATCC 27853) [µg/mL] | MIC ([7]; ATCC BAA-2523) [µg/mL] | MIC ([8]; ATCC BAA-1705) [µg/mL] | IC50 at 72 h [9] [µg/mL] | MIC ([1]; Acinetobacter baumannii NCTC 13304 (OXA-27)) [µg/mL] | MIC ([2]; Escherichia coli ATCC BAA-2340 (KPC)) [µg/mL] | MIC ([3]; Acinetobacter baumannii ABA19-1) [µg/mL] | MIC ([4]; Klebsiella pneumoniae KPN 19-15) [µg/mL] | MIC ([5]; Pseudomonas aeruginosa PAE19-3) [µg/mL] | MIC ([6]; Pseudomonas aeruginosa ATCC27853) [µg/mL] | MIC ([7]; Escherichia coli ATCC BAA-2523) [µg/mL] | MIC ([8]; Klebsiella pneumoniae ATCC BAA-1705 (KPC)) [µg/mL] |
| --- | --- | --- | --- | --- | --- | --- | --- | --- | --- | --- | --- | --- | --- | --- | --- | --- | --- |
| CC[C@H](C)CCCCC(=O)N[C@@H](CCN)C(=O)N[C@H](C(=O)N[C@@H](CN)C(=O)N[C@H]1CCNC(=O)[C@H]([C@@H](C)O)NC(=O)[C@H](CCN)NC(=O)[C@H](CCN)NC(=O)[C@H]([C@@H](C)O)NC(=O)[C@@H](Cc2ccccc2)NC(=O)[C@H](CCN)NC1=O)[C@@H](C)O [Compound 6, (S)-6-methyloctanoyl-Dab-Thr-Dap-ring(4-10)[Dab-Dab-D-Phe-Thr-Dab-Dab-Thr]] (X1-[Dab]T[Dap][Dab][Dab][dF]T[Dab][Dab]T; lactam 4-C) | ≤0.03 | ≤0.03 | ≤0.03 | ≤0.03 | 0.125 (≈ 0.106 µM) | 0.03 (≈ 0.0255 µM) | ≤0.03 | ≤0.03 | > 500 | – | – | – | – | – | – | – | – |
| CCCCCCC(=O)N[C@@H](CN)C(=O)N[C@H](C(=O)N[C@H](CCN)C(=O)N[C@H]1CCNC(=O)[C@H]([C@@H](C)O)NC(=O)[C@H](CCN)NC(=O)[C@H](CCN)NC(=O)[C@H](CC(C)C)NC(=O)[C@@H](Cc2ccccc2)NC(=O)[C@H](CCN)NC1=O)[C@@H](C)O [Compound 94, Heptanoyl-Dap-Thr-D-Dab-ring(4-10)[Dab-Dab-D-Phe-Leu-Dab-Dab-Thr]] (Heptanoyl-[Dap]T[dDab][Dab][Dab][dF]L[Dab][Dab]T; lactam 4-C) | 0.03 (≈ 0.0258 µM) | 0.06 (≈ 0.0517 µM) | 0.03 (≈ 0.0258 µM) | 0.03 (≈ 0.0258 µM) | 1 (≈ 0.861 µM) | 1 (≈ 0.861 µM) | 0.06 (≈ 0.0517 µM) | 0.03 (≈ 0.0258 µM) | 298 ± 30.7 (≈ 257 µM) | – | – | – | – | – | – | – | – |
| CCCCCCCC(=O)N[C@@H](CCN)C(=O)N[C@H](C(=O)N[C@@H](CN)C(=O)N[C@H]1CCNC(=O)[C@H]([C@@H](C)O)NC(=O)[C@H](CCN)NC(=O)[C@H](CCN)NC(=O)[C@H](CC(C)C)NC(=O)[C@@H](Cc2ccccc2)NC(=O)[C@H](CCN)NC1=O)[C@@H](C)O [Compound 38, Octanoyl-Dab-Thr-Dap-ring(4-10)[Dab-Dab-D-Phe-Leu-Dab-Dab-Thr]] (Octanoyl-[Dab]T[Dap][Dab][Dab][dF]L[Dab][Dab]T; lactam 4-C) | – | – | – | – | – | – | – | – | 219 ± 9.4 (≈ 186 µM) | 0.03 (≈ 0.0255 µM) | 0.03 (≈ 0.0255 µM) | 0.03 (≈ 0.0255 µM) | 0.03 (≈ 0.0255 µM) | 0.25 (≈ 0.213 µM) | 0.03 (≈ 0.0255 µM) | 0.03 (≈ 0.0255 µM) | 0.03 (≈ 0.0255 µM) |
| CC[C@H](C)CCCCC(=O)N[C@@H](CCN)C(=O)N[C@H](C(=O)N[C@H](CO)C(=O)N[C@H]1CCNC(=O)[C@H]([C@@H](C)O)NC(=O)[C@H](CCN)NC(=O)[C@H](CCN)NC(=O)[C@H]([C@@H](C)O)NC(=O)[C@@H](Cc2ccccc2)NC(=O)[C@H](CCCN)NC1=O)[C@@H](C)O [Compound 66, (S)-6-methyloctanoyl-Dab-Thr-D-Ser-ring(4-10)[Dab-Orn-D-Phe-Thr-Dab-Dab-Thr]] (X1-[Dab]T[dS][Dab][Orn][dF]T[Dab][Dab]T; lactam 4-C) | 0.25 (≈ 0.21 µM) | 0.125 (≈ 0.105 µM) | 0.25 (≈ 0.21 µM) | 0.5 (≈ 0.419 µM) | 4 (≈ 3.35 µM) | 64 (≈ 53.7 µM) | 0.125 (≈ 0.105 µM) | 0.25 (≈ 0.21 µM) | > 500 | – | – | – | – | – | – | – | – |
| CCCCCCCCC(=O)N[C@@H](CCN)C(=O)N[C@H](C(=O)N[C@H](CO)C(=O)N[C@H]1CCNC(=O)[C@H]([C@@H](C)O)NC(=O)[C@H](CCN)NC(=O)[C@H](CCN)NC(=O)[C@H]([C@@H](C)O)NC(=O)[C@@H](Cc2ccccc2)NC(=O)[C@H](CCCN)NC1=O)[C@@H](C)O [Compound 70, Nonanoyl-Dab-Thr-D-Ser-ring(4-10)[Dab-Orn-D-Phe-Thr-Dab-Dab-Thr]] (Nonanoyl-[Dab]T[dS][Dab][Orn][dF]T[Dab][Dab]T; lactam 4-C) | 0.25 (≈ 0.21 µM) | 0.5 (≈ 0.419 µM) | 0.25 (≈ 0.21 µM) | 0.5 (≈ 0.419 µM) | 8 (≈ 6.71 µM) | 64 (≈ 53.7 µM) | 0.5 (≈ 0.419 µM) | 0.25 (≈ 0.21 µM) | 384 ± 29.5 (≈ 322 µM) | – | – | – | – | – | – | – | – |
| CC(C)CCCCC(=O)N[C@@H](CCCN)C(=O)N[C@H](C(=O)N[C@H](CO)C(=O)N[C@H]1CCNC(=O)[C@H]([C@@H](C)O)NC(=O)[C@H](CCN)NC(=O)[C@H](CCN)NC(=O)[C@H]([C@@H](C)O)NC(=O)[C@@H](Cc2ccccc2)NC(=O)[C@H](CCN)NC1=O)[C@@H](C)O [Compound 57, 6-methylheptanoyl-Orn-Thr-D-Ser-ring(4-10)[Dab-Dab-D-Phe-Thr-Dab-Dab-Thr]] ({Heptanoyl(6-Me)}-[Orn]T[dS][Dab][Dab][dF]T[Dab][Dab]T; lactam 4-C) | 0.25 (≈ 0.212 µM) | 0.125 (≈ 0.106 µM) | 0.25 (≈ 0.212 µM) | 0.5 (≈ 0.424 µM) | 4 (≈ 3.39 µM) | 64 (≈ 54.3 µM) | 0.125 (≈ 0.106 µM) | 0.25 (≈ 0.212 µM) | > 500 | – | – | – | – | – | – | – | – |
